Data set [1] deals with Rhodesain (Trypanosoma brucei rhodesiense) (UniProt Q95PM0). Kind of data set: Inhibition of Trypanosoma brucei rhodesiense rhodesain expressed in Pichia pastoris X33 at 100 uM using Cbz-Phe-Arg-AMC as substrate measured over 10 mins by fluorescence microplate reader analysis.
In data set [2] the test system is Trypanosoma brucei brucei. Nature of the data set: Antitrypanosomal activity against trypomastigote form of Trypanosoma brucei brucei TC 221 after 24 hrs by alamar blue assay. As to conditions: TC 221, 24 h. It is filed as functional, organism-based. (In general: Alamar Blue is a resazurin reagent that responds to reducing activity.)
Data set [3] can be described thus: Cytotoxicity against mouse J774.1 cells incubated for 24 hrs by alamar blue assay. It is filed as cell-based. To be noted: read-out: TC50.

Sequence of Rhodesain (Trypanosoma brucei rhodesiense) (Q95PM0 1-450): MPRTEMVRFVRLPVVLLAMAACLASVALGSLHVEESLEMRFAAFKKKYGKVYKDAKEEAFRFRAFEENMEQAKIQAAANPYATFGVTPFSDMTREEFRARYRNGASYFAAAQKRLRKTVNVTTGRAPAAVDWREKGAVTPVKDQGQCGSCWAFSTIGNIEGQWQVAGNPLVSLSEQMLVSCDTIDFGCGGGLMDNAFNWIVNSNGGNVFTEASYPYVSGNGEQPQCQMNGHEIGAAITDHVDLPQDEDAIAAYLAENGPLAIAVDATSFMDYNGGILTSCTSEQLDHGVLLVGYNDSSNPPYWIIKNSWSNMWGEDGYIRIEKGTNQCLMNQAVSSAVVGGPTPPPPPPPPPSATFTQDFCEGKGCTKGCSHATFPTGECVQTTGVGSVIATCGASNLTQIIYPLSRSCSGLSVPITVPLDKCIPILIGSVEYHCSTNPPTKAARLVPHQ

For orientation: inhibition means the change of the read-out against control, counted positive when it falls. A high value points to a strong effect. What is called IC50 is the midpoint of a concentration-inhibition curve. A high value points to weaker potency in that assay. Consider `N#C/C=C\CCN1C(=O)CN=C(c2ccccc2)c2ccccc21`, for which the inhibition in data set [1] is 27%. In data set [2], the IC50 is above 40 µM.
For `N#C/C=C\CCCN1C(=O)CN=C(c2ccccc2)c2ccccc21` the same measures were 27% and above 40 µM.
For `CC(=O)/C=C/CCN1C(=O)CN=C(c2ccccc2)c2ccccc21`, the inhibition in data set [1] turned out to be 27%. In data set [2], the IC50 is 5.3 µM. In data set [3], the CC50 at 24 h was above 100 µM.
For the molecule `CC(=O)/C=C/CCCN1C(=O)CN=C(c2ccccc2)c2ccccc21`, the inhibition in data set [1] was determined as 27%. This molecule also yielded an IC50 in data set [2] of 4.6 µM. The CC50 at 24 h in data set [3] was determined as 31.8 µM.
On to `COC(=O)/C=C/CCCN1C(=O)CN=C(c2ccccc2)c2ccccc21`, for which the inhibition in data set [1] came out at 27%. In addition, the IC50 in data set [2] turned out to be 23.5 µM.
For the molecule `COC(=O)/C=C/CNC(=O)CN1C(=O)[C@@H](COC(=O)NC23CC4CC(CC(C4)C2)C3)N=C(c2ccccc2)c2ccccc21`, the IC50 in data set [2] was 4.8 µM. This lies in the single-digit micromolar range.
`N#C/C=C\CCCCN1C(=O)CN=C(c2ccccc2)c2ccccc21` returned an inhibition in data set [1] of 27%. Besides, the IC50 in data set [2] came to 14.5 µM.
With `COC(=O)/C=C\CCN1C(=O)CN=C(c2ccccc2)c2ccccc21`, the inhibition in data set [1] was found to be 27%. In addition, the IC50 in data set [2] was above 40 µM.
The molecule `COC(=O)/C=C/CCCCN1C(=O)CN=C(c2ccccc2)c2ccccc21` yielded an inhibition in data set [1] of 27%. The molecule also yielded an IC50 in data set [2] of 15.9 µM.
Regarding `CC(=O)/C=C/CCCCN1C(=O)CN=C(c2ccccc2)c2ccccc21`, the inhibition in data set [1] worked out at 27%. The same molecule gave an IC50 in data set [2] of 13.1 µM.

(Values after ChEMBL document CHEMBL3822379, “Development of novel 1,4-benzodiazepine-based Michael acceptors as antitrypanosomal agents” (Bioorg Med Chem Lett, 2016).)
